# Source: ChEMBL document CHEMBL1201862, “PubChem BioAssay data set” (2004)
# Activity calls are given as the source filed them.
# What was measured:
# [1] = NIH:OVCAR-3 ovarian cancer cell cytotoxicity, dose response, PAX8 inhibitor project, plate reader, dry powder samples (AID 743044); type: functional, cell-based
# Paired box protein Pax-8 = Paired box protein Pax-8 (Homo sapiens, UniProt Q06710); assay: inhibitors of PAX8-driven TPO luciferase reporter, dose response, RMG-I cells, cherry-pick (AID 687027); type: functional, cell-based;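 note: luciferase reporter driven by Pax8 target thyroperoxidase promoter measured by SteadyGlo luminescence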
# [2] = cytotoxicity in OVCAR8 ovarian cancer cells, dose response, PAX8 project, cell-based, plate reader, dry powder samples (AID 743197); type: functional; conditions: OVCAR-8
# [3] = target: T1, Oxysterols receptor LXR-beta (Homo sapiens, UniProt P55055); type: functional, cell-based;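 note: agonist activity at LXR measured by a cell-based luminescence readout across a dose range, run as a counterscreen for daf-12 agonists; HEK293 cells with Gal4-LXR fusion and GAL4-driven luciferase reporter; potency for activation of Gal4-LXR reporter so compounds are agonists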
# T1 sequence (P55055 whole entry): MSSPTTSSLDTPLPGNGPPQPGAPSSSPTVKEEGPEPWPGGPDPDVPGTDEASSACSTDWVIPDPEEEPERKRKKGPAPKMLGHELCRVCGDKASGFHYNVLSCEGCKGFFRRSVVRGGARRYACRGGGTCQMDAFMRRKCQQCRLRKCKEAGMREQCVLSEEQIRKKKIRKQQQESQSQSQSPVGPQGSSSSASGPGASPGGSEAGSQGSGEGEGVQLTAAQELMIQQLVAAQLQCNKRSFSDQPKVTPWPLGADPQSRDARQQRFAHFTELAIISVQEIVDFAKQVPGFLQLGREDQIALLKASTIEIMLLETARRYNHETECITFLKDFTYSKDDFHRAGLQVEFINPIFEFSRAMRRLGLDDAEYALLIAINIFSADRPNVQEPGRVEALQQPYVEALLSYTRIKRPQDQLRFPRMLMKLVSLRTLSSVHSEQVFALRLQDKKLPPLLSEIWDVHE
# [4] = target: T2, DNA repair and recombination protein RAD54-like (Homo sapiens, UniProt Q92698); assay: inhibitors of human RAD54 branch migration, confirmation, biochemical, fluorescence, cherry-picked samples, dose series (AID 651657); type: functional
# T2 sequence (Q92698 whole entry): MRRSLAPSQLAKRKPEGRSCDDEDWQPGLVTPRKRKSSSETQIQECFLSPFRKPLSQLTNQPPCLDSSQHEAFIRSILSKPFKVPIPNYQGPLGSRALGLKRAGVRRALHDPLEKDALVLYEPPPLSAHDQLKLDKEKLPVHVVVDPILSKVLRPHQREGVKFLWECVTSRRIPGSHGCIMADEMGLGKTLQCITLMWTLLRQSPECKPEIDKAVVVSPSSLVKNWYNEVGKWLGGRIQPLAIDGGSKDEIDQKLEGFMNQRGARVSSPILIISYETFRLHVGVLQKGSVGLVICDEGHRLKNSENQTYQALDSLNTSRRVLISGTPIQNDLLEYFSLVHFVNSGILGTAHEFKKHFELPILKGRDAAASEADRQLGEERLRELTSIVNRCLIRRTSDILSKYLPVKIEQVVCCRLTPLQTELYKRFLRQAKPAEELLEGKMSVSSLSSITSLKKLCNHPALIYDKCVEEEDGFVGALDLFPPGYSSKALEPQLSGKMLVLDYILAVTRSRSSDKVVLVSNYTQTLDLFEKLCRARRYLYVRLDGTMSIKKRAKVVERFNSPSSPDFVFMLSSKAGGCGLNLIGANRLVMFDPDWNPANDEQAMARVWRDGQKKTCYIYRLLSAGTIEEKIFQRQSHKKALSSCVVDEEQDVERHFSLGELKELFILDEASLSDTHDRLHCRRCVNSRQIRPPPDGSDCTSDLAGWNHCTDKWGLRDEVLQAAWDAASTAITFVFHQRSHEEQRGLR
# [5] = target: T3, DNA repair protein RAD52 homolog (Homo sapiens, UniProt P43351); type: functional, biochemical
# T3 sequence (P43351 whole entry): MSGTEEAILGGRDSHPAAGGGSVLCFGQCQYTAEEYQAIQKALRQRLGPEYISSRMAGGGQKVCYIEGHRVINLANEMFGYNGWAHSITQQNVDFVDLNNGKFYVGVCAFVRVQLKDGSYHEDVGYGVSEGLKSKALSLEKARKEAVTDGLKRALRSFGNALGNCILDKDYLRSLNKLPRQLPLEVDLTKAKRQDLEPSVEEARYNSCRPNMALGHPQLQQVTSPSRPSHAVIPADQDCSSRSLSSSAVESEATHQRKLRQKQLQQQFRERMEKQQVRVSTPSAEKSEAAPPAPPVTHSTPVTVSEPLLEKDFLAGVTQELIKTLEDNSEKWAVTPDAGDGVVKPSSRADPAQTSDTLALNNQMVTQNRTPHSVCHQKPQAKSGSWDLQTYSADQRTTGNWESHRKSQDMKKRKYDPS
# [6] = non-specific cell cytotoxicity, dose response, cytotoxicity control for PAX8 inhibitor project, plate reader, dry powder samples (AID 743021); type: functional, cell-based
# [7] = ZM109 Env clade C HIV-1 fusion inhibitors, dose response, HeLa effector, CEM target cells, luciferase, cherry-pick (AID 652058); type: functional, cell-based
# [8] = inhibitors of HIV Env-driven cell fusion, dose response, cherry-pick (AID 652057); type: functional, cell-based
# Cytochrome P450 2C9 = Cytochrome P450 2C9 (Homo sapiens, UniProt P11712)
# [9] = off-target signal loss in HeLa-CEM21 co-culture – HeLa F-luc CTL cells, cherry-picked, counter-screen for HIV-1 Env fusion inhibitor project, dose response (AID 652040); type: functional, cell-based;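 note: potency for signal decrease marking cytotoxic or nonspecific inhibition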
# [10] = CEM21 lymphoblast cell cytotoxicity, dose response, cytotoxicity control for viral fusion inhibitor project, CellTiter-Glo luminescence, cherry-picked (AID 652042); type: functional, cell-based;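 note: potency for signal decrease meaning cytotoxicity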
# [11] = inhibitors of clade B AD8 Env fusion, dose response, cell-based, cherry-pick (AID 652062); type: functional;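 note: luciferase signal from cell-cell fusion driven by HIV-1 clade B AD8 Env; potency is for inhibitors of fusion seen as a drop in luminescence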
# [12] = target: Cyclin-dependent kinase 5/CDK5 activator 1 (Homo sapiens, UniProt Q00535); assay: CDK5/p35 kinase inhibitors, dose response, biochemical, cherry-picked samples, set 2 (AID 504545)
# Sequence of Cyclin-dependent kinase 5/CDK5 activator 1 (Q00535 whole entry): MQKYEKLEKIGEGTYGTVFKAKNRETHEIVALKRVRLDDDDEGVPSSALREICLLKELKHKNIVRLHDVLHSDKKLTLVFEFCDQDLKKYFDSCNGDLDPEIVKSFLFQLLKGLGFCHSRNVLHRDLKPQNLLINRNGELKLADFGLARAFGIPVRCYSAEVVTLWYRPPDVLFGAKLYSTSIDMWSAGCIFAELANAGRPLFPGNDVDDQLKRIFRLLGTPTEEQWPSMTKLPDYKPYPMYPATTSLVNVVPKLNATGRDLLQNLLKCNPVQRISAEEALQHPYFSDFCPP
# Sequence of Cyclin-dependent kinase 5/CDK5 activator 1 (Q15078 whole entry, further chain): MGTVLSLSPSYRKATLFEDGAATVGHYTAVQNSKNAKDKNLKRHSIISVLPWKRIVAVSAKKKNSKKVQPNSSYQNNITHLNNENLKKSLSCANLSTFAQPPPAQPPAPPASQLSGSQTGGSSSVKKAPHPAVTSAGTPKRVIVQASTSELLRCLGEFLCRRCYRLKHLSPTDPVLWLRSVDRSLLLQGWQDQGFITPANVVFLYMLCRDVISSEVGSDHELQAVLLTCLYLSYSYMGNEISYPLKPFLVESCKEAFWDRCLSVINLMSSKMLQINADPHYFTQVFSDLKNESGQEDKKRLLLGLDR
# Sequence of Paired box protein Pax-8 (Q06710 whole entry): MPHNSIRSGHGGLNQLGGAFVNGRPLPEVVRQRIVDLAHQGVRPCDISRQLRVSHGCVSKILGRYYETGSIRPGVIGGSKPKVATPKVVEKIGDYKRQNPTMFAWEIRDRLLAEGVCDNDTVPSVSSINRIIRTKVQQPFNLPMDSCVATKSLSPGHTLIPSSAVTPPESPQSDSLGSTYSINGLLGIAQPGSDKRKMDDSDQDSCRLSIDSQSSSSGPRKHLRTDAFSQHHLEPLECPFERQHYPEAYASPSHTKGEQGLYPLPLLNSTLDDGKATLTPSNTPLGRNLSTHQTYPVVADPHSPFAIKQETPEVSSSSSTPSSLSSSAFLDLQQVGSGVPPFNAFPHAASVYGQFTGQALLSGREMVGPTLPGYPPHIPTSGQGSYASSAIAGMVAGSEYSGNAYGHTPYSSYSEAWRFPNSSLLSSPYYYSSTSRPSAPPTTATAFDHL
# Sequence of Cytochrome P450 2C9 (P11712 whole entry, the tested form may be a part): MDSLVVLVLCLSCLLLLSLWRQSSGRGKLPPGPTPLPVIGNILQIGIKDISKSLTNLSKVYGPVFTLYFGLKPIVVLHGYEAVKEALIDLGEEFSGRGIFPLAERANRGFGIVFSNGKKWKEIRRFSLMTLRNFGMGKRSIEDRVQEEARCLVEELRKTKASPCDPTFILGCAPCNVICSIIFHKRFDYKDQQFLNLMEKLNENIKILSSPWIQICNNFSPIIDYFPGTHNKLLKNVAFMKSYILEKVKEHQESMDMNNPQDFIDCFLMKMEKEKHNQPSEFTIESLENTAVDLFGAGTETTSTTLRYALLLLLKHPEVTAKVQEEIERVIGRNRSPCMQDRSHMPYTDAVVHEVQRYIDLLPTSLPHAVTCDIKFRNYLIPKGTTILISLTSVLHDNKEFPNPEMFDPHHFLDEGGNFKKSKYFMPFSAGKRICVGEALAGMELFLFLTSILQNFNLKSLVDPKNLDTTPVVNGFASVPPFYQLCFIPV
Compound,AC50 [1],AC50 (Paired box protein Pax-8),AC50 [2],AC50 [7],AC50 [8],AC50 [9],AC50 [10],AC50 [11],also measured
Cc1ccc(S(=O)(=O)Nc2ccc3c(c2)C(=O)N([C@H](C)CO)C[C@H](C)[C@@H](CN(C)S(=O)(=O)c2ccc(Cl)cc2)OCCCC[C@H](C)O3)cc1,14.4 µM (active),3.2 µM (active),> 70 µM (inactive),,,,,,
CC(C)Oc1cc(O)c2c(=O)c(-c3ccc(O)cc3)coc2c1,,,,,,,,,EC50 [3]: > 67.6 µM (inactive)
CC(=O)Nc1cc(-c2ccc(N3CCN(C)CC3)cc2)cn2c(-c3ccc(S(C)(=O)=O)cc3)cnc12,,,,,,,,,AC50 [4]: 20.3 µM (active); AC50 [5]: 4.37 µM (active)
COc1ccc(S(=O)(=O)N(C)C[C@H]2OCCCC[C@H](C)Oc3ccc(NS(=O)(=O)c4ccc(F)cc4)cc3C(=O)N([C@@H](C)CO)C[C@@H]2C)cc1,21.5 µM (active),4.67 µM (active),46.1 µM (active),,,,,,AC50 [6]: 56.8 µM (active)
CC1(C)Cc2c(ccc3ccccc23)C(=O)N1,,,,8.55 µM (active),4.84 µM (active),14.1 µM (active),47.6 µM (active),2.95 µM (active),AC50 (Cytochrome P450 2C9): inconclusive; AC50 [12]: 22.4 µM (active)
Cc1cc(OCC(O)CNC(C)c2ccccc2)ccc1C(C)C (configuration not stated),,,,1.85 µM (active),2.75 µM (active),3.99 µM (active),13.3 µM (active),7.78 µM (active),
